Experimental data reported in PMC5970065 (Biochimica et biophysica acta, 2018).

Target: myeloperoxidase (MPO) (Homo sapiens, UniProt P05164)
Assay type: biochemical

Sequence of myeloperoxidase (MPO) (P05164 165-273): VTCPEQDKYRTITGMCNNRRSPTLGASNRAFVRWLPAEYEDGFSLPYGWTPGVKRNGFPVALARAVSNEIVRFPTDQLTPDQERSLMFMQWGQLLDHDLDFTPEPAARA
Sequence of myeloperoxidase (MPO) (P05164 279-745): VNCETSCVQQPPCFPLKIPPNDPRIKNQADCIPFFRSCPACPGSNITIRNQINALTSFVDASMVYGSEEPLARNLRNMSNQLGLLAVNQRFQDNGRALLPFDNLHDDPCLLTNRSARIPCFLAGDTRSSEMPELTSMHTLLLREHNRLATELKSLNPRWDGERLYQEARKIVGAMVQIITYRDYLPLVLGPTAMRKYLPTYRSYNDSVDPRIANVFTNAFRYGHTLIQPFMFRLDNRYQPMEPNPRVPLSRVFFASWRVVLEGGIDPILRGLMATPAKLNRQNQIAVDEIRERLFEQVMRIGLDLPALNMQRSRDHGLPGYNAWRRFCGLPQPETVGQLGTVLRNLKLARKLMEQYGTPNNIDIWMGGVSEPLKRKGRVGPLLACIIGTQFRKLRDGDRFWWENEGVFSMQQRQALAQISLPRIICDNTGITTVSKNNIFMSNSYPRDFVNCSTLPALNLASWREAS

IC50: 63.5 µM
SMILES: COc1cc(CC(CO[C@@H]2O[C@H](CO)[C@@H](O)[C@H](O)[C@H]2O)C(CO[C@@H]2O[C@H](CO)[C@@H](O)[C@H](O)[C@H]2O)Cc2ccc(O)c(OC)c2)ccc1O (stereo partly shown) [LGM2605]
